PubChem BioAssay (NCI)
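These data come from cells grown in 96-well plates and exposed to compound for 48 hours at five concentrations. GI50 is the concentration that inhibits growth by half. TGI marks complete inhibition of growth.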 Where a SMILES comes first, the peptide text is derived from it. The star is where a group is joined. Boc = CC(C)(C)OC(=O)*; nBu = CCCC*

Legend:
Assay in all cases: DTP human tumour cell line panel, 48 h
CCRF-CEM leukemia = system: CCRF-CEM leukemia
HCC-2998 colon = system: HCC-2998 colon
HCT-116 colon = system: HCT-116 colon
HOP-62 NSCLC = system: HOP-62 NSCLC
MOLT-4 leukemia = system: MOLT-4 leukemia
NCI-H460 lung = system: NCI-H460 lung
OVCAR-4 ovarian = system: OVCAR-4 ovarian
SNB-19 CNS = system: SNB-19 CNS
UACC-257 melanoma = system: UACC-257 melanoma
MCF7 breast = system: MCF7 breast

Oc1ccccc1C=Nc1ccc(-c2nc3ccccc3s2)cc1
TGI (CCRF-CEM leukemia): > 100 µM | TGI (HCC-2998 colon): 45.4 µM | TGI (HCT-116 colon): > 100 µM | TGI (HOP-62 NSCLC): 52.2 µM | TGI (MOLT-4 leukemia): > 100 µM | TGI (NCI-H460 lung): 83.5 µM | TGI (OVCAR-4 ovarian): > 100 µM | TGI (SNB-19 CNS): > 100 µM | TGI (UACC-257 melanoma): 67.5 µM

CC1(C)OC[C@@H]([C@@]2(COC(c3ccccc3)(c3ccccc3)c3ccccc3)CC=CC(=O)O2)O1
TGI (CCRF-CEM leukemia): 96.7 µM | TGI (HCC-2998 colon): 41 µM | TGI (HCT-116 colon): > 100 µM | TGI (HOP-62 NSCLC): > 100 µM | TGI (MCF7 breast): 54.6 µM | TGI (MOLT-4 leukemia): 98.2 µM | TGI (NCI-H460 lung): > 100 µM | TGI (OVCAR-4 ovarian): > 100 µM | TGI (SNB-19 CNS): > 100 µM | TGI (UACC-257 melanoma): > 100 µM

CCCCCCCCCCCCCCCc1nc(=S)[nH][nH]1
TGI (CCRF-CEM leukemia): > 100 µM | TGI (HCC-2998 colon): > 100 µM | TGI (HCT-116 colon): > 100 µM | TGI (HOP-62 NSCLC): > 100 µM | TGI (MOLT-4 leukemia): > 100 µM | TGI (NCI-H460 lung): > 100 µM | TGI (OVCAR-4 ovarian): > 100 µM | TGI (SNB-19 CNS): > 100 µM | TGI (UACC-257 melanoma): > 100 µM

O=C(Nc1ccccc1)Oc1ccc(C(=S)Nc2ccc(Br)cc2)cc1
TGI (CCRF-CEM leukemia): 28.5 µM | TGI (HCC-2998 colon): 40.8 µM | TGI (HCT-116 colon): 37.2 µM | TGI (HOP-62 NSCLC): 82.1 µM | TGI (MCF7 breast): 60.9 µM | TGI (MOLT-4 leukemia): 66.2 µM | TGI (NCI-H460 lung): 59.3 µM | TGI (OVCAR-4 ovarian): 86.3 µM | TGI (UACC-257 melanoma): 67.1 µM

CC1=NN(c2nc(N)nc(/C(C#N)=C\c3ccc(-c4ccc([N+](=O)[O-])cc4)o3)n2)C(C)(C)C1
TGI (CCRF-CEM leukemia): > 100 µM | TGI (HCC-2998 colon): > 100 µM | TGI (HCT-116 colon): > 100 µM | TGI (HOP-62 NSCLC): 67.5 µM | TGI (MCF7 breast): > 100 µM | TGI (MOLT-4 leukemia): > 100 µM | TGI (NCI-H460 lung): > 100 µM | TGI (OVCAR-4 ovarian): > 100 µM | TGI (SNB-19 CNS): > 100 µM | TGI (UACC-257 melanoma): > 100 µM

COC(=O)/C=C\C(C#N)(C#N)N=Cc1ccc(OC)cc1
TGI (CCRF-CEM leukemia): 2.53 µM | TGI (HCC-2998 colon): 41.1 µM | TGI (HCT-116 colon): 3.77 µM | TGI (HOP-62 NSCLC): 33.9 µM | TGI (MCF7 breast): 7.44 µM | TGI (MOLT-4 leukemia): 4.39 µM | TGI (NCI-H460 lung): 42.5 µM | TGI (OVCAR-4 ovarian): 12.8 µM | TGI (SNB-19 CNS): > 62.7 µM | TGI (UACC-257 melanoma): 11.6 µM

Cc1cc(-c2nc3c(F)cccc3s2)ccc1N
TGI (CCRF-CEM leukemia): > 100 µM | GI50 (HCC-2998 colon): > 100 µM | TGI (HCC-2998 colon): > 100 µM | TGI (HCT-116 colon): > 100 µM | TGI (HOP-62 NSCLC): > 100 µM | TGI (MCF7 breast): > 100 µM | TGI (MOLT-4 leukemia): 63.9 µM | GI50 (OVCAR-4 ovarian): 20.9 µM | TGI (OVCAR-4 ovarian): > 100 µM | TGI (UACC-257 melanoma): > 100 µM

COc1cc(C2S/C(=C/c3ccccc3)C(=O)N2c2cccc(NC(C)=O)c2)cc(OC)c1OC (stereo not drawn)
TGI (CCRF-CEM leukemia): > 100 µM | TGI (HCC-2998 colon): > 100 µM | TGI (HCT-116 colon): 37.2 µM | TGI (HOP-62 NSCLC): > 100 µM | TGI (MCF7 breast): > 100 µM | TGI (MOLT-4 leukemia): > 100 µM | TGI (OVCAR-4 ovarian): > 100 µM | TGI (SNB-19 CNS): > 100 µM | TGI (UACC-257 melanoma): > 100 µM

O=CNc1ccccc1OCCOc1ccccc1NC=O
TGI (CCRF-CEM leukemia): > 100 µM | TGI (HCC-2998 colon): > 100 µM | TGI (HCT-116 colon): > 100 µM | TGI (HOP-62 NSCLC): > 100 µM | TGI (MCF7 breast): > 100 µM | TGI (MOLT-4 leukemia): > 100 µM | TGI (NCI-H460 lung): > 100 µM | TGI (OVCAR-4 ovarian): > 100 µM | TGI (SNB-19 CNS): > 100 µM | TGI (UACC-257 melanoma): > 100 µM

O=P(NCCCO)(OCc1ccccc1)N(CCCl)CCCl (stereo not drawn)
TGI (CCRF-CEM leukemia): > 100 µM | TGI (HCC-2998 colon): > 100 µM | TGI (HCT-116 colon): > 100 µM | TGI (MCF7 breast): > 100 µM | TGI (MOLT-4 leukemia): > 100 µM | TGI (NCI-H460 lung): > 100 µM | TGI (OVCAR-4 ovarian): > 100 µM | TGI (SNB-19 CNS): > 100 µM | TGI (UACC-257 melanoma): > 100 µM

COc1ccccc1-c1c(C#N)c(N)[nH]c(=S)c1C#N
TGI (HCC-2998 colon): > 100 µM | TGI (HCT-116 colon): > 100 µM | TGI (HOP-62 NSCLC): > 100 µM | TGI (MCF7 breast): > 100 µM | TGI (MOLT-4 leukemia): > 100 µM | TGI (NCI-H460 lung): > 100 µM | TGI (OVCAR-4 ovarian): > 100 µM | TGI (SNB-19 CNS): > 100 µM | TGI (UACC-257 melanoma): > 100 µM

CC(Oc1ccc(Cl)cc1Cl)C(=O)NN1C(=O)CC(=O)N(c2ccccc2)C1=S (stereo not drawn)
TGI (HCC-2998 colon): > 100 µM | TGI (HCT-116 colon): > 100 µM | TGI (HOP-62 NSCLC): > 100 µM | TGI (MCF7 breast): > 100 µM | TGI (MOLT-4 leukemia): > 100 µM | TGI (NCI-H460 lung): > 100 µM | TGI (OVCAR-4 ovarian): > 100 µM | TGI (SNB-19 CNS): > 100 µM | TGI (UACC-257 melanoma): > 100 µM

CC(C)CC(N)C(=O)NC(C(=O)NC(CCCNC(=N)N)C(=O)NC(CS)C(=O)NC1CSCC(C(=O)NC(Cc2ccccc2)C(=O)NC(C(=O)NC(CCCNC(=N)N)C(=O)O)C(C)C)NC(=O)C2CCCN2C(=O)C(CCCCN)NC(=O)C2CCCN2C(=O)C2CCCN2C(=O)C(Cc2ccc(O)cc2)NC(=O)C(CO)NC(=O)C(CCCCN)NC(=O)C(C(C)O)NC(=O)C(Cc2c[nH]c3ccccc23)NC1=O)C(C)C (stereo not drawn)
TGI (CCRF-CEM leukemia): > 25 µM | TGI (HCT-116 colon): > 25 µM | TGI (HOP-62 NSCLC): > 25 µM | TGI (MCF7 breast): > 25 µM | TGI (MOLT-4 leukemia): > 25 µM | TGI (OVCAR-4 ovarian): > 25 µM | TGI (SNB-19 CNS): > 25 µM | TGI (UACC-257 melanoma): > 25 µM

COc1ccc(C2C3CCc4ccccc4C3=NN2S(=O)(=O)c2cccc(C(=O)O)c2OC)cc1 (stereo not drawn)
TGI (CCRF-CEM leukemia): 81.7 µM | TGI (HCT-116 colon): > 100 µM | TGI (HOP-62 NSCLC): > 100 µM | TGI (MCF7 breast): 6.55 µM | TGI (MOLT-4 leukemia): > 100 µM | TGI (NCI-H460 lung): > 100 µM | TGI (OVCAR-4 ovarian): > 100 µM | TGI (SNB-19 CNS): > 100 µM

Nc1nc(SCC(=O)c2ccc(Br)cc2)c2[nH]cnc2n1
TGI (CCRF-CEM leukemia): 47.8 µM | TGI (HCT-116 colon): > 100 µM | TGI (HOP-62 NSCLC): > 100 µM | TGI (MCF7 breast): > 100 µM | TGI (NCI-H460 lung): > 100 µM | TGI (OVCAR-4 ovarian): > 100 µM | TGI (SNB-19 CNS): > 100 µM | TGI (UACC-257 melanoma): > 100 µM

COc1ccc(CCn2cncn2)cc1
TGI (CCRF-CEM leukemia): > 100 µM | TGI (HCC-2998 colon): > 100 µM | TGI (HCT-116 colon): > 100 µM | TGI (HOP-62 NSCLC): > 100 µM | TGI (MOLT-4 leukemia): > 100 µM | TGI (NCI-H460 lung): > 100 µM | TGI (OVCAR-4 ovarian): > 100 µM | TGI (SNB-19 CNS): > 100 µM | TGI (UACC-257 melanoma): > 100 µM

COc1ccccc1N/C(SCc1ccccc1)=C(/C(Cl)=C(Cl)Cl)[N+](=O)[O-]
TGI (CCRF-CEM leukemia): > 100 µM | TGI (HCT-116 colon): > 100 µM | TGI (HOP-62 NSCLC): > 100 µM | TGI (MCF7 breast): > 100 µM | TGI (MOLT-4 leukemia): > 100 µM | TGI (NCI-H460 lung): > 100 µM | TGI (OVCAR-4 ovarian): 47.7 µM | TGI (SNB-19 CNS): > 100 µM | TGI (UACC-257 melanoma): > 100 µM

COc1ccc2nc3cc(Cl)ccc3c(NCCCN3CCN(CCCNc4ccc5nnn6c7ccccc7c(=O)c4c56)CC3)c2c1
TGI (CCRF-CEM leukemia): > 25 µM | TGI (HCC-2998 colon): > 9.86 µM | TGI (HCT-116 colon): > 20.2 µM | TGI (HOP-62 NSCLC): > 25 µM | TGI (MCF7 breast): 7.11 µM | TGI (MOLT-4 leukemia): > 25 µM | TGI (NCI-H460 lung): > 25 µM | TGI (OVCAR-4 ovarian): > 25 µM | TGI (SNB-19 CNS): > 25 µM | TGI (UACC-257 melanoma): > 25 µM

Cc1ccc(-c2cn3c(nc4ccccc43)c(/C=C/c3ccco3)n2)cc1
TGI (HCC-2998 colon): > 100 µM | TGI (HCT-116 colon): > 100 µM | TGI (HOP-62 NSCLC): > 100 µM | TGI (MCF7 breast): > 100 µM | TGI (NCI-H460 lung): > 100 µM | TGI (OVCAR-4 ovarian): > 100 µM | TGI (SNB-19 CNS): > 100 µM | TGI (UACC-257 melanoma): > 100 µM

CCCCOc1ccc(CC(NC(=O)OC(C)(C)C)C(=O)NC(C)C(=O)NC(Cc2ccccc2)C(=O)NCC(N)=O)cc1 (stereo not drawn) (Boc-Y(nBu)AFG-NH2; configuration not given here)
TGI (CCRF-CEM leukemia): > 100 µM | TGI (HCC-2998 colon): > 100 µM | TGI (HCT-116 colon): > 100 µM | TGI (HOP-62 NSCLC): > 100 µM | TGI (MCF7 breast): > 100 µM | TGI (MOLT-4 leukemia): 53.3 µM | TGI (NCI-H460 lung): > 100 µM | TGI (OVCAR-4 ovarian): > 100 µM | TGI (SNB-19 CNS): > 100 µM | TGI (UACC-257 melanoma): > 100 µM
